Measured values published in patent publication US20080009511A1, “Cancer treatment with compounds inhibiting PKC alpha” (priority 2004, published 2008).

What was measured:
KB oral cancer cells = assay: Cell viability assay (trypan blue dye exclusion), viable cells counted at day 6; assay type: cell-based, human; conditions: 10 micromoles; for Treated (cell number × 10^5): about 4×10^4 cells seeded, untreated 3.8 ± 0.4; for % inhibiton: growth vs untreated
Protocol: (§1) The following cancer cells were maintained in Dulbecco's modified Eagle medium (DMEM) supplemented with 10 percent bovine calf serum. Cells were seeded for 24 hours. Then they were treated with PKC inhibitors or left untreated. The cells were then collected periodically and evaluated using trypan blue dye exclusion to assess viability using the method described by C Y Chen, et al., in J. Biol. Chem. 273:16700-16709. Cultures containing about 4×10^4 cells were treated with 5 micromoles of Gö7874 (except that PC3 prostate cancer cells were treated with 10 micromoles) and the viable cells were counted at day 6. […] Cultures containing about 4×10^4 cells were treated with or without 10 micromoles of Gö6850 and the viable cells were counted at day 6. […] Cultures containing about 4×10^4 cells were treated with or without 10 micromoles of NGIC-I and the viable cells were counted at day 6. […] Cultures containing about 4×10^4 cells were treated with or without 10 micromoles of Ro31-7549 and the viable cells were counted at day 6. […] Cultures containing about 4×10^4 cells were treated with or without 10 micromoles of Ro31-8220 and the viable cells were counted at day 6. […] Cultures containing about 4×10^4 cells were treated with or without 10 micromoles of Ro31-8425 and the viable cells were counted at day 6. […] Cultures containing about 4×10^4 cells were treated with or without 10 micromoles of Ro31-0432 and the viable cells were counted at day 6.

[1] = tested on: PANC-1 human pancreatic carcinoma cells; assay: as above; assay type: cell-based; conditions: 10 micromoles; for Treated (cell number × 10^5): about 4×10^4 cells seeded, untreated 2.1 ± 0.3; for % inhibiton: growth vs untreated
Protocol: as §1

[2] = tested on: PC3 human prostate cancer cells; assay: as above; assay type: cell-based; conditions: 10 micromoles; for Treated (cell number × 10^5): about 4×10^4 cells seeded, untreated 7.1 ± 0.3; for % inhibiton: growth vs untreated
Protocol: as §1

[3] = tested on: HT29 human colon cancer cells; assay: as above; assay type: cell-based; conditions: 10 micromoles; for Treated (cell number × 10^5): about 4×10^4 cells seeded, untreated 3.8 ± 0.4; for % inhibiton: growth vs untreated
Protocol: as §1

U251 human glioma cells = assay: as above; assay type: cell-based; conditions: 10 micromoles; for Treated (cell number × 10^5): about 4×10^4 cells seeded, untreated 9.6 ± 0.5; for % inhibiton: growth vs untreated
Protocol: as §1

[4] = tested on: H460 human lung cancer cells; assay: as above; assay type: cell-based; conditions: 10 micromoles; for Treated (cell number × 10^5): about 4×10^4 cells seeded, untreated 2.4 ± 0.2; for % inhibiton: growth vs untreated
Protocol: as §1

[5] = tested on: MDA-MB-468 human breast cancer cells; assay: as above; assay type: cell-based; conditions: 10 micromoles; for % inhibiton: growth vs untreated
Protocol: as §1

[6] = tested on: Jurkat cells (a human acute T-cell leukemia cell line); assay: as above; assay type: cell-based; conditions: 10 micromoles; for Treated (cell number × 10^5): about 4×10^4 cells seeded, untreated 8.8 ± 0.4; for % inhibiton: growth vs untreated
Protocol: as §1

[7] = tested on: AGS human gastric cancer cells; assay: as above; assay type: cell-based; conditions: 10 micromoles; for Treated (cell number × 10^5): about 4×10^4 cells seeded, untreated 2.4 ± 0.3; for % inhibiton: growth vs untreated
Protocol: as §1

[8] = tested on: A431 human epidermoid carcinoma cells; assay: as above; assay type: cell-based; conditions: 10 micromoles; for Treated (cell number × 10^5): about 4×10^4 cells seeded, untreated 5.4 ± 0.4; for % inhibiton: growth vs untreated
Protocol: as §1

[9] = tested on: Hela human cervical cancer cells; assay: as above; assay type: cell-based; conditions: 10 micromoles; for Treated (cell number × 10^5): about 4×10^4 cells seeded, untreated 3.4 ± 0.4; for % inhibiton: growth vs untreated
Protocol: as §1

[10] = tested on: HepG2 human liver cancer cells; assay: as above; assay type: cell-based; conditions: 10 micromoles; for Treated (cell number × 10^5): about 4×10^4 cells seeded, untreated 4.2 ± 0.4; for % inhibiton: growth vs untreated
Protocol: as §1

[11] = tested on: NBT-II human bladder cancer cells; assay: as above; assay type: cell-based; conditions: 10 micromoles; for Treated (cell number × 10^5): about 4×10^4 cells seeded, untreated 2.9 ± 0.4; for % inhibiton: growth vs untreated
Protocol: as §1

human cancer cells = assay: Cell viability assay, summary over the panel of cancer cells; assay type: cell-based; conditions: 10 micromoles; day 6; cell lines not named as going to apoptosis
Protocol: The following cancer cells were maintained in Dulbecco's modified Eagle medium (DMEM) supplemented with 10 percent bovine calf serum. Cells were seeded for 24 hours. Then they were treated with PKC inhibitors or left untreated. The cells were then collected periodically and evaluated using trypan blue dye exclusion to assess viability using the method described by C Y Chen, et al., in J. Biol. Chem. 273:16700-16709. Cultures containing about 4×10^4 cells were treated with or without 10 micromoles of Gö6850 and the viable cells were counted at day 6. […] Cultures containing about 4×10^4 cells were treated with or without 10 micromoles of NGIC-I and the viable cells were counted at day 6. […] Cultures containing about 4×10^4 cells were treated with or without 10 micromoles of Ro31-7549 and the viable cells were counted at day 6. […] Cultures containing about 4×10^4 cells were treated with or without 10 micromoles of Ro31-8220 and the viable cells were counted at day 6. […] Cultures containing about 4×10^4 cells were treated with or without 10 micromoles of Ro31-8425 and the viable cells were counted at day 6. […] Cultures containing about 4×10^4 cells were treated with or without 10 micromoles of Ro31-0432 and the viable cells were counted at day 6.

[12] = tested on: 3Y1 rat fibroblast cells overexpressing the epidermal growth factor receptor (EGFR); assay: Soft agar/cell transformation assay; assay type: cell-based; conditions: 1 micromole with EGF (100 ng/ml), in contrast to EGF alone
Text: 1×10^3 3Y1 rat fibroblast cells overexpressing the epidermal growth factor receptor (EGFR) were suspended in top agar (consisting of 20 percent calf serum, 0.38 percent agar and the remainder DMEM) and overlaid onto bottom agar (DMEM, 20 percent calf serum and 0.7 percent agar) as reported by Sementchenko et al., in Onocgen 17:2883-2888.

[13] = tested on: 3Y1 rat fibroblast cells overexpressing EGF receptors (3Y1-EGFR cells); assay: EGF-induced cell transformation (transformed morphology); assay type: cell-based; conditions: 1 micromole

Compound | cells that went to apoptosis upon treatment (KB oral cancer cells) | Treated (cell number × 10^5) (KB oral cancer cells) | % inhibiton (KB oral cancer cells) | Treated (cell number × 10^5) [1] | % inhibiton [1] | Treated (cell number × 10^5) [2] | % inhibiton [2] | Treated (cell number × 10^5) [3] | % inhibiton [3] | Treated (cell number × 10^5) (U251 human glioma cells) | % inhibiton (U251 human glioma cells) | Treated (cell number × 10^5) [4] | % inhibiton [4] | % inhibiton [5] | Treated (cell number × 10^5) [6] | % inhibiton [6] | Treated (cell number × 10^5) [7] | % inhibiton [7] | Treated (cell number × 10^5) [8] | % inhibiton [8] | other results
N#CCCn1c2ccccc2c2c3c(c4c5ccccc5[nH]c4c21)C(=O)NC3 [NGIC-I, 12-propanenitrile,5,6,7,13-tetrahydro-5-oxo-12H-Indolo[2,3-a]pyrrolo[3,4-c]carbazole] | all | 0 × 10^5 | * (indicates the inhibitor causes significant cell death, and cell number is less than originally seeded cell number.) | 1.2 × 10^5 | 44% | 3.7 × 10^5 | 48% | 3.2 × 10^5 | 15% | 1.6 × 10^5 | 82% | 1.6 × 10^5 | 32% | 78% | 0.2 × 10^5 | * (indicates the inhibitor causes significant cell death, and cell number is less than originally seeded cell number.) | 1.7 × 10^5 | 30% | 2.7 × 10^5 | 49% | originally seeded cells survived [6]: About 50%; originally seeded cells survived [9]: 75%; Treated (cell number × 10^5) [9]: 0.3 × 10^5; % inhibiton [9]: * (indicates the inhibitor causes significant cell death, and cell number is less than originally seeded cell number.); Treated (cell number × 10^5) [10]: 0.9 × 10^5; % inhibiton [10]: 78%; Treated (cell number × 10^5) [11]: 0.9 × 10^5; % inhibiton [11]: 73%; inhibition of growth in contrast to untreated cells, range over the other treated cancer cells (human cancer cells): 25-82%
Cl.Cn1cc(C2=C(c3c4n(c5ccccc35)CCC(CN)C4)C(=O)NC2=O)c2ccccc21 (stereo not shown) [Ro31-8425] | all | 0 × 10^5 | * (indicates the inhibitor causes significant cell death, and cell number is less than originally seeded cell number.) | 0 × 10^5 | * (indicates the inhibitor causes significant cell death, and cell number is less than originally seeded cell number.) | 3 × 10^5 | 53% | 0.6 × 10^5 | 85% | 1.4 × 10^5 | 85% | 0 × 10^5 | * (indicates the inhibitor causes significant cell death, and cell number is less than originally seeded cell number.) | * (indicates the inhibitor causes significant cell death, and cell number is less than originally seeded cell number.) | 0.3 × 10^5 | * (indicates the inhibitor causes significant cell death, and cell number is less than originally seeded cell number.) | 0 × 10^5 | * (indicates the inhibitor causes significant cell death, and cell number is less than originally seeded cell number.) | 2.6 × 10^5 | 52% | reduction of colony number in soft agar [12]: 72%; cells that went to apoptosis upon treatment [1]: all; cells that went to apoptosis upon treatment [4]: all; cells that went to apoptosis upon treatment [5]: significant number; Treated (cell number × 10^5) ([5]; about 4×10^4 cells seeded, untreated 6.1 ± 0.4): 0.1 ± 0.05 × 10^5; cells that went to apoptosis upon treatment [6]: significant number; cells that went to apoptosis upon treatment [7]: all; cells that went to apoptosis upon treatment [9]: all; Treated (cell number × 10^5) [9]: 0 × 10^5; % inhibiton [9]: * (indicates the inhibitor causes significant cell death, and cell number is less than originally seeded cell number.); Treated (cell number × 10^5) [10]: 0.4 × 10^5; % inhibiton [10]: 90%; cells that went to apoptosis upon treatment [11]: significant number; Treated (cell number × 10^5) [11]: 0.3 × 10^5; % inhibiton [11]: * (indicates the inhibitor causes significant cell death, and cell number is less than originally seeded cell number.); cell apoptosis during co-treatment ([13]; co-treatment with 100 ng/ml EGF): without detected cell apoptosis; effect on EGF-induced transformed morphology ([13]; co-treatment with 100 ng/ml EGF for 48 hours): partially blocked; inhibition of growth in contrast to untreated cells, range over the other treated cancer cells (human cancer cells): 52-90%
